Measurements published in patent US7176212B2, “2,4-diamino pyrimidine compounds having anti-cell proliferative activity” (AstraZeneca AB, priority 1998, dated 2007).
pIC50: −log10 of the molar value.

Key:
CDK4/Cyclin D1 = target: T1, CDK4/Cyclin D1 (Homo sapiens, UniProt P11802); assay: CDK inhibition assay (Scintillation Proximity Assay, GST-Retinoblastoma substrate); type: biochemical; conditions: in-vitro SPA kinase assay, CDK4/Cyclin D1, GST-Rb substrate; read-out: CDK4 inhibitory activity IC50
T1 construct: CDK4 amino acids 1–303; made in house; host or cells: Sf21 (Spodoptera frugiperda) insect cells, baculovirus co-infection, vector pVL1393
T1 sequence (P11802 whole entry, the tested form may be a part): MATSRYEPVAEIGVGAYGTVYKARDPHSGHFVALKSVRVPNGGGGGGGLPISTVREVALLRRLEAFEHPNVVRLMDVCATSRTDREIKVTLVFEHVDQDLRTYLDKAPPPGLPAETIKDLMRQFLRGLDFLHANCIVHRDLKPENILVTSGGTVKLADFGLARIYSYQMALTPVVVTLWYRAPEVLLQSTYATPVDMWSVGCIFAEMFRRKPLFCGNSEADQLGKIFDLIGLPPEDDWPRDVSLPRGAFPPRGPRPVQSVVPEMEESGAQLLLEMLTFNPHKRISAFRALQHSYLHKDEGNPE
T1 sequence (P24385 whole entry partner, the tested form may be a part): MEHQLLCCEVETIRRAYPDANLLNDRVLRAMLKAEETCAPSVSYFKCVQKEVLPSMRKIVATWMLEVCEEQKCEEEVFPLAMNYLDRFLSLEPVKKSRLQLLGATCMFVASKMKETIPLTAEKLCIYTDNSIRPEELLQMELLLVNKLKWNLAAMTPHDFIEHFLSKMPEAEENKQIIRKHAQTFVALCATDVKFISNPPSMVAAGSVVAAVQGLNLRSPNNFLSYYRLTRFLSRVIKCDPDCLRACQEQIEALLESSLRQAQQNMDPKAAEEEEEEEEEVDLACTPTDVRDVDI
Description: The compounds were tested in an in vitro kinase assay in 96 well format using Scintillation Proximity Assay (SPA—obtained from Amersham) for measuring incorporation of [γ-33-P]-Adenosine Triphosphate into a test substrate (GST-Retinoblastoma). In each well was placed the compound to be tested (diluted in DMSO and water to correct concentrations) and in control wells either p16 as an inhibitor control or DMSO as a positive control.
Approximately 0.5 μl of CDK4/Cyclin D1 partially-purified enzyme (amount dependent on enzyme activity) diluted in 25 μl incubation buffer was added to each well then 20 μl of GST-Rb/ATP/ATP33 mixture (containing 0.5 μg GST-Rb and 0.2 μM ATP and 0.14 μCi [γ-33-P]-Adenosine Triphosphate), and the resulting mixture shaken gently, then incubated at room temperature for 60 minutes.
To each well was then added 150 μL stop solution containing (0.8 mg/well of Protein A-PVT SPA bead (Amersham)), 20 pM/well of Anti-Glutathione Transferase, Rabbit IgG (obtained from Molecular Probes), 61 mM EDTA and 50 mM HEPES pH 7.5 containing 0.05% sodium azide.
The plates were sealed with Topseal-S plate sealers, left for two hours then spun at 2500 rpm, 1124×g., for 5 minutes. The plates were read on a Topcount for 30 seconds per well. […]

[1] = target: T2, human Focal Adhesion Kinase (FAK) (Homo sapiens, UniProt Q05397); assay: FAK3 kinase inhibition assay (in vitro enzyme ELISA); type: biochemical; conditions: Poly (Glu, Ala, Tyr) substrate, read-out: FAK inhibitory activity IC50
T2 construct: FAK (full length human cDNA described by Andre et al); made in house; host or cells: Sf21 (Spodoptera frugiperda) insect cells, baculovirus (pFastbac 1)
T2 sequence (Q05397 whole entry): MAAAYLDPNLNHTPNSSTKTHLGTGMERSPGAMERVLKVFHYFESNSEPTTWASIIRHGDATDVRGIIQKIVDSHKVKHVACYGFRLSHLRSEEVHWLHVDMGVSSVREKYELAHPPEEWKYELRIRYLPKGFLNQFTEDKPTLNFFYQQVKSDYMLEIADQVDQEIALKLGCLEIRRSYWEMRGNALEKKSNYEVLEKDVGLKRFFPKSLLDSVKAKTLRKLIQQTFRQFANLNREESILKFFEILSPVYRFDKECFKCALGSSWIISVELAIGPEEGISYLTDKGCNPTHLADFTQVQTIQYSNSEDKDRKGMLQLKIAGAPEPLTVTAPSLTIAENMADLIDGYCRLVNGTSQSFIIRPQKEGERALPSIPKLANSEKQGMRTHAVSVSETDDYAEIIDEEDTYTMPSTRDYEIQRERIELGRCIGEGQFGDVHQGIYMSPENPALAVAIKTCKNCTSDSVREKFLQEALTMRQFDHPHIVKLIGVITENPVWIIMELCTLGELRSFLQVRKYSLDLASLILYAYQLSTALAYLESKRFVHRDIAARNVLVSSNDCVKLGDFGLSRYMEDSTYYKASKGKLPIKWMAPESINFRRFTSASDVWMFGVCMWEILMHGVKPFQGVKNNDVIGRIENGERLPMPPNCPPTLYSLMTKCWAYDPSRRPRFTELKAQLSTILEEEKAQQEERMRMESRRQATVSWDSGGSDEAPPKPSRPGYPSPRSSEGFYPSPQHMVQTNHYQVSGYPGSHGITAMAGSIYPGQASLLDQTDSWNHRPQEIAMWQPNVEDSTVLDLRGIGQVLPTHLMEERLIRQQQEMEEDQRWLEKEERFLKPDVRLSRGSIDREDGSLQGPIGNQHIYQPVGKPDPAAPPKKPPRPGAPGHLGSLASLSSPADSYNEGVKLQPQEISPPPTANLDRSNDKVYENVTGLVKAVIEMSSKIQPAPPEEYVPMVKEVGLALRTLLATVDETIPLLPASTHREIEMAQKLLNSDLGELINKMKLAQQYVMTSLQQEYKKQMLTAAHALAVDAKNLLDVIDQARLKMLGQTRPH
Description: A stock of substrate solution was prepared from a random copolymer containing tyrosine, for example Poly (Glu, Ala, Tyr) 6:3:1 (Sigma P3899), stored as 1 mg/ml stock in PBS at −20° C. and diluted 1 in 500 with PBS for plate coating.
The liquid was then discarded and the wells were washed twice with PBST.

pIC50 (CDK4/Cyclin D1)	pIC50 [1]	Structure (SMILES)
6.28		CN(C)CC(O)COc1ccc(Nc2nccc(Nc3cc(Cl)ccc3Cl)n2)cc1 (stereo not drawn) [Example 11, 2-{4-[3-(N,N-Dimethyl)amino-2-hydroxy-propoxy]anilino}-4-(2,5-dichloroanilino)pyrimidine]
6.22	5.48	Cc1ccc(Nc2ccnc(Nc3ccc(OCC(O)CN(C)C)cc3)n2)c(Br)c1 (stereo not drawn) [Example 3, 2-{4-[3-(N,N-Dimethyl)amino-2-hydroxy-propoxy]anilino}-4-(2-bromo-4-methylanilino)pyrimidine]
